Data from ChEMBL document CHEMBL1201862, “PubChem BioAssay data set” (2004).
Active and inactive are the calls of the source.

Experiments:
[1] = inhibitors of Vif binding to APOBEC3G peptide, primary screen, biochemical, TR-FRET, GST-Vif 1-94, biotin-A3G peptide, dose response retest (AID 1117319); format: functional;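 further: TR-FRET signal of purified GST-Vif binding a biotinylated A3G peptide; inhibitors lower the FRET signal by blocking Vif and A3G binding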
Genome polyprotein = Genome polyprotein (dengue virus type 2, UniProt P29990); assay: Dengue-2 NS5 methyltransferase inhibitors, primary screen, biochemical, confirmation dose response (AID 588689); format: functional
Chain of Genome polyprotein (P29990 2492-3391 limits assumed): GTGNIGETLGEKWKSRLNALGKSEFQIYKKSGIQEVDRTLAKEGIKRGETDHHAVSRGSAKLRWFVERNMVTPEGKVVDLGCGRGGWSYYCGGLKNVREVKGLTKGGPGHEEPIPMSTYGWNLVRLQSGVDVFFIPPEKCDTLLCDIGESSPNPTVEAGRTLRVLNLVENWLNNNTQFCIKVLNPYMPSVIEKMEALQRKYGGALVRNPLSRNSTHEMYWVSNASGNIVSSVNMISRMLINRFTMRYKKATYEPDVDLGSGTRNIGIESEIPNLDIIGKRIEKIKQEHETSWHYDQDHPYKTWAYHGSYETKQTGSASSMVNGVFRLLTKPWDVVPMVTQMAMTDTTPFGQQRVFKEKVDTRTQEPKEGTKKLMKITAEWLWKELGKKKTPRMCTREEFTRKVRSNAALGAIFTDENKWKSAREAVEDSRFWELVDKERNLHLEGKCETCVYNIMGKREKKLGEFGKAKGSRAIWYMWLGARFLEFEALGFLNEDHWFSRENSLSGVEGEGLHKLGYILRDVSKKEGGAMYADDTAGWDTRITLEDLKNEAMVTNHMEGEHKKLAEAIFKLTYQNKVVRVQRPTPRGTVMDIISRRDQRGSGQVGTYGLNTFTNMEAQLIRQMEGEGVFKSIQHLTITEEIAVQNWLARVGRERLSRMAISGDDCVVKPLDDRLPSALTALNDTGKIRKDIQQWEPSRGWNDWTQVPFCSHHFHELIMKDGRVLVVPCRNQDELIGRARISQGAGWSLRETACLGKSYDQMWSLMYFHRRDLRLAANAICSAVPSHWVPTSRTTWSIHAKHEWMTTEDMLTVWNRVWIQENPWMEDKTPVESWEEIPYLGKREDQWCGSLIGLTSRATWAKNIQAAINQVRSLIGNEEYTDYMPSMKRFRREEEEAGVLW

[2] = THP-1 cell cytotoxicity, dose response, cytotoxicity control for Vif-APOBEC3G degradation inhibitor project, THP-1 cells (AID 1117359); format: functional; details: Human immunodeficiency virus 1, THP-1
[3] = biological target: T1, Apoptotic protease-activating factor 1 (Homo sapiens, UniProt O14727); format: functional
T1 sequence (O14727 whole entry): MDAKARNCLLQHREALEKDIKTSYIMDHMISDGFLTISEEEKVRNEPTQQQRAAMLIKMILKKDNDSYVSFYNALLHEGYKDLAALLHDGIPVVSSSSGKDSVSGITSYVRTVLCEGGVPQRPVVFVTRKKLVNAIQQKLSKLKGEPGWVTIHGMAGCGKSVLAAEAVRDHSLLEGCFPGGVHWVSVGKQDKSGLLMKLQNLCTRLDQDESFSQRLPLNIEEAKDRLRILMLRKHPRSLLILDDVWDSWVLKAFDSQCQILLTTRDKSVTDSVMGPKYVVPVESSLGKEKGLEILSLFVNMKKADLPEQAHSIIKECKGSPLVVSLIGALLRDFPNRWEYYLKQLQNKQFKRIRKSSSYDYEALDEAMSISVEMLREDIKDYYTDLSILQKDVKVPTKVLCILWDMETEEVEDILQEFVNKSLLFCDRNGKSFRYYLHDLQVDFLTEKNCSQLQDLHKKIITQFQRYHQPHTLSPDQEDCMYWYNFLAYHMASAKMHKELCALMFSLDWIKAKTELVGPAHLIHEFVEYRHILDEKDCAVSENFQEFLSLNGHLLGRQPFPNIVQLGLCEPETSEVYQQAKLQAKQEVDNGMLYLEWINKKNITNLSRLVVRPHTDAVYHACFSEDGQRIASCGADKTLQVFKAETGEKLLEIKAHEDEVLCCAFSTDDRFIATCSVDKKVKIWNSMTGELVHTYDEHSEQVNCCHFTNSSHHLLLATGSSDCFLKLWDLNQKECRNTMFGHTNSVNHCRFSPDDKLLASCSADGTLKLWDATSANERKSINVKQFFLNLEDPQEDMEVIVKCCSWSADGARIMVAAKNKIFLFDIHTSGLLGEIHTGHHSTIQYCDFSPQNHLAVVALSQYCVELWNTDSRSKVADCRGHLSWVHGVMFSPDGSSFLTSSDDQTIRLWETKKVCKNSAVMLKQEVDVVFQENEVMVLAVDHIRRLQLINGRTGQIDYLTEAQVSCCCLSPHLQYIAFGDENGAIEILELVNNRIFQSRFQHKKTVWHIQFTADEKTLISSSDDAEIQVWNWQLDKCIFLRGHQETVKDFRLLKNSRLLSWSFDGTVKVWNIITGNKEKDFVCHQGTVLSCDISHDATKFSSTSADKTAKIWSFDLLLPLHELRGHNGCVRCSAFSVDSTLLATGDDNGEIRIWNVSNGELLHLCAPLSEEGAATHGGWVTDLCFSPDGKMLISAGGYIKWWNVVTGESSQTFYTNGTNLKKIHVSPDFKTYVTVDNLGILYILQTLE

Protein Tat = biological target: T2, Protein Tat (Human immunodeficiency virus type 1 group M subtype B (isolate HXB2)(HIV-1), UniProt P04608); format: functional;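 further: tat binding to TAR RNA read out by fluorescence polarization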
T2 sequence (P04608 whole entry): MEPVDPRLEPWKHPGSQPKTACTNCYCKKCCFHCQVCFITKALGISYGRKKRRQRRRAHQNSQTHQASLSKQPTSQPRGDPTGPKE

Caspase-6 = biological target: T3, Caspase-6 (Homo sapiens, UniProt P55212); assay: human caspase-6 inhibitors, dose response, biochemical, VEID-R110 fluorescence, cherry-pick (AID 720632)
T3 sequence (P55212 whole entry): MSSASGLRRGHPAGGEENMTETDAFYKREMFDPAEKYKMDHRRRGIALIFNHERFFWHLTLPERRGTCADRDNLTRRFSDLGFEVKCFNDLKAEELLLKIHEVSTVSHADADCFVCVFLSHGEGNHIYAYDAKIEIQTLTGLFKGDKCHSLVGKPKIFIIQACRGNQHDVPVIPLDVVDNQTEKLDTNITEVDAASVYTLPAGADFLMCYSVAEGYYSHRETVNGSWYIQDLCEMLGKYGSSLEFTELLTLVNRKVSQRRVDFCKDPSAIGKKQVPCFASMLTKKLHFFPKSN

[4] = growth suppression of beta-catenin-knockout colon cells, dose response, cell-based, HCT116, human colon tumor (AID 1045); format: functional;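 further: HCT116 colon tumor cells with beta catenin knocked out; cells exposed to compound for 60 hours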
[5] = growth suppression of PTEN-null colon cells, dose response, cell-based, HCT116 PTEN knockout (AID 1047); format: functional;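 further: HCT116 colon tumor cells with PTEN knocked out; cells exposed to compound for 60 hours before readout; potency for loss of cell viability measured by luminescence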
[6] = Vero cell cytotoxicity, dose response, cytotoxicity control for Vif-APOBEC3G degradation inhibitor project, Vero cells (AID 1117358); format: functional; details: Human immunodeficiency virus 1, Vero
[7] = Luminescent dose response cell-based high throughput screening assay for inhibitors of the Janus kinase 2 mutant JAK2V617F. [Related pubchem assays: 1446 (Primary screen.), 1521 (Confirmation assay.), 1486 (Counter screen.)]; format: functional
[8] = HEp-2 cell cytotoxicity, dose response, cytotoxicity control for RSV inhibitor project, HTS (AID 2410); format: functional; details: human respiratory syncytial virus
[9] = biological target: T4, Microphthalmia-associated transcription factor (Homo sapiens, UniProt O75030); assay: TRPM1 promoter luciferase signal decrease, dose response, MITF inhibitor project, cell-based, SK-MEL-5, cherry-picked, set 3 (AID 493073); format: functional
T4 sequence (O75030 whole entry): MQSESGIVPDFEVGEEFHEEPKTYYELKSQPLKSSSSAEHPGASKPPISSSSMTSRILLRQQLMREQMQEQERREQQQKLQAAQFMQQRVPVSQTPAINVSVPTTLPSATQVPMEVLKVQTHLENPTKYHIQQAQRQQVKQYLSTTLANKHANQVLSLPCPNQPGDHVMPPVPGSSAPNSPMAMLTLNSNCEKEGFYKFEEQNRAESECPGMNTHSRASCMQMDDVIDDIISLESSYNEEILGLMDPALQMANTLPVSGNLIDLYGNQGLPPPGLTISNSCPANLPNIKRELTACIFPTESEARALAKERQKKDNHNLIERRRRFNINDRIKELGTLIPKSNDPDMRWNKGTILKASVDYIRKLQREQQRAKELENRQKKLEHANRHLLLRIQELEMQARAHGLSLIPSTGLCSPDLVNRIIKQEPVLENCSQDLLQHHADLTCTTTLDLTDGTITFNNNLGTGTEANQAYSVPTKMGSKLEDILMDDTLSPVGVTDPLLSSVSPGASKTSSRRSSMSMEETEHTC

[10] = biological target: T5, Replicative DNA helicase DnaB (Mycobacterium tuberculosis, UniProt P9WMR3); assay: DnaB intein splicing inhibitors, dose response, biochemical, cell-free fluorescence (AID 449749); format: functional
T5 sequence (P9WMR3 whole entry): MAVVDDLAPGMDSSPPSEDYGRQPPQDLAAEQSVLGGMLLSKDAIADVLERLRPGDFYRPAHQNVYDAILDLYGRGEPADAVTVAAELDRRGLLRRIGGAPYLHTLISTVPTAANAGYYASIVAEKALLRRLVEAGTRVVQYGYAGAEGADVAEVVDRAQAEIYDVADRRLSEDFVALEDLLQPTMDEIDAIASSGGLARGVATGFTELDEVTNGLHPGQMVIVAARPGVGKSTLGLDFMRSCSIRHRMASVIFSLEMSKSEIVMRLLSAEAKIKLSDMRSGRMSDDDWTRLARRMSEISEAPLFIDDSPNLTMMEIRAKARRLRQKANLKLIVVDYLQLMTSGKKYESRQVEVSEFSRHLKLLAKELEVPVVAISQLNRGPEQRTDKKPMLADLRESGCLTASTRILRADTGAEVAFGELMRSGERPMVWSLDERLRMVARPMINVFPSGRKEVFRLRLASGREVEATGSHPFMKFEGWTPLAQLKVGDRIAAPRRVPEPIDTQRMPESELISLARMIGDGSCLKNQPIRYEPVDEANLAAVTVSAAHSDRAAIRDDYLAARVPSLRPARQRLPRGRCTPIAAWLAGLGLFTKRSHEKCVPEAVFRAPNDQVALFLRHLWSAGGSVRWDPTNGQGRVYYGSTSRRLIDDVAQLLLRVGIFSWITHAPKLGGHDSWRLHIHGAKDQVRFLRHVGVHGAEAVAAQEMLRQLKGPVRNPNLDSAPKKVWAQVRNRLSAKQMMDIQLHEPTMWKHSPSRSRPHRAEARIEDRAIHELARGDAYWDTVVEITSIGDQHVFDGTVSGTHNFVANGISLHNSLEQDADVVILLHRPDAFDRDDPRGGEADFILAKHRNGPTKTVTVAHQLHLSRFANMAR

[11] = microbe, parasite or virus in culture; format: functional; details: Mycobacterium tuberculosis
Protein RecA = biological target: T6, Protein RecA (Mycobacterium tuberculosis, UniProt P9WHJ3); assay: Fluorescence Cell-Free Homogeneous Dose Retest to Identify Inhibitors of RecA-Intein Splicing Activity. [Related pubchem assays (depositor defined):AID2097, AID2223, AID489010, AID492950]; format: functional
T6 sequence (P9WHJ3 whole entry): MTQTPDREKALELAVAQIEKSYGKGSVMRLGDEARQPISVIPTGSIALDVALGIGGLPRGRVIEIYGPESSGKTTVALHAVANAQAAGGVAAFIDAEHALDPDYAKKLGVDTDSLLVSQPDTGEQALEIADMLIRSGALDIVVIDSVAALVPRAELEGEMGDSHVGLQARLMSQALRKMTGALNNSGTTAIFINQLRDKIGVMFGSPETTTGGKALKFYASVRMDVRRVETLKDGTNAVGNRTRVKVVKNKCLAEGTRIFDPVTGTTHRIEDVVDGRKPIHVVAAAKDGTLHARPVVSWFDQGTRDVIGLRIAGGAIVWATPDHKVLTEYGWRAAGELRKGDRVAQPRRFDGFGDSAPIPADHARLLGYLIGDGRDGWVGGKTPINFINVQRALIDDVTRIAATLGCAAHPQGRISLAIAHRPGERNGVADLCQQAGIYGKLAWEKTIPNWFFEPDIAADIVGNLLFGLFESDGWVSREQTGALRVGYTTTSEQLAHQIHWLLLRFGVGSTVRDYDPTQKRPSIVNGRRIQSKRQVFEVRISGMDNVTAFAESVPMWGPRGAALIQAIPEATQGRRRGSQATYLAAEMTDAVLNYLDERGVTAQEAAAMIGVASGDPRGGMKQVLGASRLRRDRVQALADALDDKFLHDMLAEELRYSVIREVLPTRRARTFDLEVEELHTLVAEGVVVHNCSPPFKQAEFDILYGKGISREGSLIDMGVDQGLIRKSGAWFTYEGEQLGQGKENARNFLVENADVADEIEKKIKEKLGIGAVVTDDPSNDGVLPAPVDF

[12] = biological target: Voltage-gated inwardly rectifying potassium channel KCNH2 (Homo sapiens, UniProt Q12809); assay: hERG protection from proarrhythmic block, potency, dose response, cell-based, thallium flux (AID 2121); format: ADME
Chain of Voltage-gated inwardly rectifying potassium channel KCNH2 (Q12809 whole entry): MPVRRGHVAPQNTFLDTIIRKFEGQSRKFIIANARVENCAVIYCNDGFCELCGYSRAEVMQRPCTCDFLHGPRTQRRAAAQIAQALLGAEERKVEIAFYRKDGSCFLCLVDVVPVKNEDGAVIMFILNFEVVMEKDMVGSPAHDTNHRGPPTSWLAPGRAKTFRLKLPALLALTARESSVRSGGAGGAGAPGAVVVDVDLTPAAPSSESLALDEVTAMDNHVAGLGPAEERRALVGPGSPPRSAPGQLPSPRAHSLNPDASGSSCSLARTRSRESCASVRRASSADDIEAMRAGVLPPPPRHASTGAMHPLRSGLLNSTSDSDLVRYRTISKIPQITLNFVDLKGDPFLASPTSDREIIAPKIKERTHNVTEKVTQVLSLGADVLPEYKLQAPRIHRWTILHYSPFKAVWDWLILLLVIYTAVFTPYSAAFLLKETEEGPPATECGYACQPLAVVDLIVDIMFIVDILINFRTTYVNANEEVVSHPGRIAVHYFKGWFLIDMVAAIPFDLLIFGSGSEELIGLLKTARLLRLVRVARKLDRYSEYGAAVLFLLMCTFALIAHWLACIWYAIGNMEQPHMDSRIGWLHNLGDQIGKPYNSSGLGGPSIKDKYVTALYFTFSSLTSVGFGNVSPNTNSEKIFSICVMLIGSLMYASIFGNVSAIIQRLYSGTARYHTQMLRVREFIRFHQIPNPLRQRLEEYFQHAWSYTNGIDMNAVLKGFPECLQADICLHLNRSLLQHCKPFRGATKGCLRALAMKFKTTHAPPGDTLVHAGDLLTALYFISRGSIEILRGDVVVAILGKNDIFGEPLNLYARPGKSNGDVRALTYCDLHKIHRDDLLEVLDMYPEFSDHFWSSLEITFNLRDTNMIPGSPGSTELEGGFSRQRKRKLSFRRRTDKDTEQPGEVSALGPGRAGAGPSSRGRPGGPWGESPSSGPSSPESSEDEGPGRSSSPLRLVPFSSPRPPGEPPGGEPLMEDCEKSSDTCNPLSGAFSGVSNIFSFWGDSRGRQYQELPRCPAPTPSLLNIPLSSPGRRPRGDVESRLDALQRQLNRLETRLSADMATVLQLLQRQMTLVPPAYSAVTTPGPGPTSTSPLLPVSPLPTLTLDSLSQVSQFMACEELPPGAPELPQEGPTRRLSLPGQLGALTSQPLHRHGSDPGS

[13] = biological target: T7, Corticotropin-releasing factor receptor 2/Corticotropin-releasing factor-binding protein (Homo sapiens, UniProt P24387+Q13324); assay: activators of CRF receptor 2 with binding protein – uHTS hits, confirmation (AID 602473); format: functional; details: read-out: EC50_Mean
T7 sequence (Q13324 whole entry): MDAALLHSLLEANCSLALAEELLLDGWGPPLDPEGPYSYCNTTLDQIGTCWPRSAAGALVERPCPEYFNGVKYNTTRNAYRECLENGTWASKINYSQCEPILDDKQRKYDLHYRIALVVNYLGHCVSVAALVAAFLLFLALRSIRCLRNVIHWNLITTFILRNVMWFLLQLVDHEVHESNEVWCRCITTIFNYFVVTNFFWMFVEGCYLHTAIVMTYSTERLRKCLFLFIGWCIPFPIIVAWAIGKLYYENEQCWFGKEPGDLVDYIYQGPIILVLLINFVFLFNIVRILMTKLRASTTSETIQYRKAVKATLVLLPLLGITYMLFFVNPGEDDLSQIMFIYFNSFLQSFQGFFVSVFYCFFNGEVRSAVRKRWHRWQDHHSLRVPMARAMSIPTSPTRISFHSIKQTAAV
T7 sequence (P24387 whole entry): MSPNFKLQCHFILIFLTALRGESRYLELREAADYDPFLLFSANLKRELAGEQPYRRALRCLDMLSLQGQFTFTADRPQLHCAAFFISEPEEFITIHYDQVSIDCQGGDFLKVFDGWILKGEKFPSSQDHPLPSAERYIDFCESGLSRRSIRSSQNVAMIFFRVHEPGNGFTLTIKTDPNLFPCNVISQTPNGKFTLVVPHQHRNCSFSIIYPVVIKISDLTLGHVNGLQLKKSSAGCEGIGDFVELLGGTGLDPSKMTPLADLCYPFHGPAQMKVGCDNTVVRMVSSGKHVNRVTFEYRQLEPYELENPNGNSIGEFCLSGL

[14] = biological target: E3 ubiquitin-protein ligase Mdm2 (Homo sapiens, UniProt Q00987); assay: enhancers of MDM2-luciferase reporter signal, concentration-effect titration, project on inhibitors of MDM2 ubiquitin ligase, cellular assay, luminescent readout, 384-well plate format (AID 1394); format: functional;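 further: MDM2 E3 inhibitors raise luminescence so EC50 is for signal enhancement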
Chain of E3 ubiquitin-protein ligase Mdm2 (Q00987 whole entry): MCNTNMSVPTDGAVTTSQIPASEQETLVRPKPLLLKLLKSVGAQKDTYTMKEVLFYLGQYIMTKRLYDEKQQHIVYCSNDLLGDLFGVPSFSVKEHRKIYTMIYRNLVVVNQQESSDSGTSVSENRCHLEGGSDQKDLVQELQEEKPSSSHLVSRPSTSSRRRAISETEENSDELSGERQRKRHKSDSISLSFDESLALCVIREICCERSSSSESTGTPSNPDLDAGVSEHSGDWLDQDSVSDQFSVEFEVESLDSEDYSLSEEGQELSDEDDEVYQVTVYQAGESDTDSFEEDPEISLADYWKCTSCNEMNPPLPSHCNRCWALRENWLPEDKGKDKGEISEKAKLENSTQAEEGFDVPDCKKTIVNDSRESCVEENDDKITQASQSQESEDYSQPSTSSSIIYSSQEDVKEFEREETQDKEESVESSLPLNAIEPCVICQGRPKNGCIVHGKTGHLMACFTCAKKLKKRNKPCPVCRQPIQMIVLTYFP

With CCc1ccc(CNc2ccc(O)cc2)cc1 the IC50 [1] was > 50.6 µM (active), the IC50 (Genome polyprotein) was > 100 µM (active) and the CC50 [2] was 26.4 µM (active). The IC50 [3] was 27.5 µM (active) and the IC50 (Protein Tat) was 25.4 µM (inconclusive).
In the case of CCOC(=O)c1c(C)oc2c1c(/C=N/Cc1ccccn1)c(O)c1ccccc12, the AC50 (Caspase-6) was 11 µM (active), the EC50 [4] was 26.4 µM (active) and the EC50 [5] was 25 µM (active). The CC50 [6] was 34.4 µM (active).
With O=c1cnn([C@@H]2O[C@H](CO)[C@@H](O)[C@H]2O)c(=O)[nH]1 [6-AZAURIDINE] the IC50 (cells) was 2.28 µM (active), the IC50 [7] was 2.32 µM (active) and the CC50 [8] was 11.9 µM (active).
For CC1CCCC(NC(=O)NC(=O)CCl)C1C (stereo not given), the AC50 [9] was 12.4 µM (active), the AC50 [10] was 23.2 µM (active) and the IC50 [7] was 1.02 µM (active). The CC50 [11] was 10.4 µM (active) and the EC50 (Protein RecA) was 6.19 µM (active).
For CCOc1ccc2nc(/N=C/c3nc(-c4ccc(Br)cc4)oc3O)sc2c1, the EC50 [12] was 0.16 µM (active) and the EC50 [13] was > 53 µM (inactive).
With Cc1ccccc1Nc1nnc(SCC2CCCCO2)s1 (stereo not given) the EC50 [14] was 8.93 µM (not active).
